Assay results as given in US11098040B2, “Compounds and methods of use” (Ferro Therapeutics, Inc., priority 2018, dated 2021).
Values belong to the molecule of their own block, whether it stands above or below them.

Legend:
HT-1080 luc2 = assay: Cell viability assay (CellTiter Glo), fibrosarcoma HT-1080 luc2; format: cell-based; settings: Homo sapiens, fibrosarcoma expressing a luciferase gene, 96 hours, CellTiter Glo, read-out: IC50 HT-1080 luc2
Protocol: (§1) Cell viability assay was performed to assess the potency of the compounds in human cancer cell lines KP4 (pancreatic ductal adenocarcinoma), MiaPaCa-2 (pancreatic carcinoma), AsPC-1 (pancreatic adenocarcinoma, ascites), 143B (osteosarcoma), and SJSA-1 (osteosarcoma). Selected compounds were also assayed in a human breast epithelial cell line MCF-10A, a nontumorigenic cell line as a control to assess differential activity. Cells at a density of 500-5,000 cells/well were seeded in 96-well plates and incubated at 37° C. overnight. A series of 9 different concentrations of compound stocks (500×) were created by 3-fold serial dilution in DMSO. These compounds were further diluted in culture media and then added to cells so that the final DMSO concentration was equal to 0.25% or less. After 96 hours of incubation, 50 μL of CellTiter Glo reagent (Promega) was added to each well and luminescence was measured after 10 minutes using EnVision (PerkinElmer). Compounds titrated from top concentration of up to 30 μM. The select compounds were tested initially from 30 μM as the top concentration in duplicates (range of 4.6 nM-30 μM). […] Luminescence from cells treated with DMSO alone was set as Max and % of inhibition was calculated as follows: Inhibition %=(Max-Sample value)/Max*100. Data was analyzed using XL-fit software (ID Business Solutions Ltd.). IC50, relative IC50, or % of top inhibition was calculated.
(§2) A group of selected analogs were further profiled in cell viability assays described above in multiple additional cancer cell lines, including lung cancer, melanoma, hepatocarcinoma, pancreatic cancer, leukemia, lymphoma, ovarian cancer, breast cancer, colon cancer, and sarcoma cell lines. Initial cell seeding numbers were adjusted for each cell line. Typically, 500-5000 cells/well for adherent cells and 5000-10000/well for suspension cells were seeded in 96-well plates.
(§3) The results of the assay in sarcoma cell lines are given in Table 21a for HT-1080 luc2 (fibrosarcoma expressing a luciferase gene), Table 21b for 143B (osteosarcoma), and Table 21c for SJSA-1 (osteosarcoma).

SK-OV-3 = assay: Cell viability assay (CellTiter Glo), ovarian cancer cell line SK-OV-3; format: cell-based; settings: Homo sapiens, 96 hours
Protocol: as §1, §2

MCF-10A = assay: Cell viability assay (CellTiter Glo), non-tumorigenic breast epithelial cell line MCF-10A; format: cell-based; settings: Homo sapiens, 96 hours
Summary of the method: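 Non-tumorigenic breast epithelial MCF-10A line, exposed for 96 hours to compound (top concentration up to 30 μM, 3-fold steps, duplicates, final DMSO 0.25% or less). ATP luminescence (CellTiter Glo) normalised to DMSO controls yields IC50, relative IC50 or % top inhibition; paclitaxel served as cytotoxic control.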

MDA-MB-435S = assay: Cell viability assay (CellTiter Glo), melanoma cell line MDA-MB-435S; format: cell-based; settings: Homo sapiens, 96 hours
Protocol: as §1, §2

HT29 = assay: Cell viability assay (CellTiter Glo), colon cancer cell line HT29; format: cell-based; settings: Homo sapiens, HT-29, 96 hours
Protocol: as §1, §2

SW480 = assay: Cell viability assay (CellTiter Glo), colon cancer cell line SW480; format: cell-based; settings: Homo sapiens, 96 hours
Protocol: as §1, §2

H1299 = assay: Cell viability assay (CellTiter Glo), lung cancer cell line H1299; format: cell-based; settings: Homo sapiens, NCI-H1299, 96 hours
Protocol: as §1, §2

PANC1 = assay: Cell viability assay (CellTiter Glo), pancreatic cell line PANC1; format: cell-based; settings: Homo sapiens, PANC-1, 96 hours
Protocol: as §1, §2
The results of the assay in the pancreatic cell lines are given in Table 15a for PANC1, Table 15b for MiaPaCa-2, and Table 15c for AsPC-1.

REC-1 = assay: Cell viability assay (CellTiter Glo), lymphoma cell line REC-1; format: cell-based; settings: Homo sapiens, Rec1, 96 hours
Protocol: as §1, §2

MV-4-1 = assay: Cell viability assay (CellTiter Glo), leukemia cell line MV-4-1; format: cell-based; settings: 96 hours
Protocol: as §1, §2
The results of the assay in the leukemia cell lines are given in Table 16a for MV-4-1 and Table 16b for HL-60 and Kasumi-1.

HCC1954 = assay: Cell viability assay (CellTiter Glo), breast cancer cell line HCC1954; format: cell-based; settings: Homo sapiens, 96 hours
Protocol: as §1, §2

Huh7 = assay: Cell viability assay (CellTiter Glo), hepatocellular carcinoma Huh7; format: cell-based; settings: Homo sapiens, Huh-7, 96 hours
Protocol: as §1, §2

H2228 = assay: Cell viability assay (CellTiter Glo), lung cancer cell line H2228; format: cell-based; settings: Homo sapiens, NCI-H2228; lung cancer cell line, 96 hours, CellTiter Glo; read-out: IC50 H2228
Protocol: as §1, §2

Raji = assay: Cell viability assay (CellTiter Glo), lymphoma cell line Raji; format: cell-based; settings: Homo sapiens, 96 hours
Protocol: as §1, §2

[1] = mouse, ip, 15 mg/kg
in vivo = settings: male, Balb/c nude, mouse, ip, 15 mg/kg
143B = assay: Cell viability assay (CellTiter Glo), osteosarcoma 143B; format: cell-based; settings: Homo sapiens, 96 h, osteosarcoma, 96 hours, CellTiter Glo, read-out: IC50 143B
Protocol: as §1, §3

MiaPaCa-2 = assay: Cell viability assay (CellTiter Glo), pancreatic carcinoma MiaPaCa-2; format: cell-based; settings: Homo sapiens, MIA PaCa-2; pancreatic carcinoma, 96 hours, CellTiter Glo; read-out: IC50 MiaPaCa-2
Summary of the method: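 MiaPaCa-2 and AsPC-1 cells were seeded overnight at 37 °C and exposed for 96 h to 9-point, 3-fold dilutions from up to 30 μM (final DMSO ≤0.25%). CellTiter Glo luminescence was read, and inhibition was calculated relative to DMSO-only cells. IC50, relative IC50 or % top inhibition was derived.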

SJSA-1 = assay: Cell viability assay (CellTiter Glo), osteosarcoma SJSA-1; format: cell-based; settings: Homo sapiens, 96 hours
Protocol: as §1, §3

SMILES: COC(=O)[C@H]1Cc2c([nH]c3ccccc23)[C@H](c2ccc(NCC3CC3)cc2)N1C(=O)CCl [Example 83]
IC50 (HT-1080 luc2): 0.038 µM
IC50 (SK-OV-3): 0.23 µM
IC50 (MCF-10A): 3.79 µM
IC50 (MDA-MB-435S): 0.047 µM
IC50 (HT29): 0.338 µM
IC50 (SW480): 10.5 µM
IC50 (H1299): 0.041 µM
IC50 (PANC1): > 1 µM
IC50 (REC-1): 0.516 µM
IC50 (MV-4-1): 0.524 µM
IC50 (HCC1954): 0.333 µM
IC50 (Huh7): 0.12 µM
IC50 (H2228): 0.112 µM
IC50 (Raji): 0.151 µM

SMILES: COC(=O)c1ccc([C@H]2c3[nH]c4ccccc4c3C[C@H](C(=O)O)N2C(=O)CCl)cc1 [Example 3]
detection in vivo of hydrolyzed products of K601 (RSL3) [1]: detected

SMILES: O=C(O)c1ccc([C@H]2c3[nH]c4ccccc4c3C[C@H](C(=O)O)N2C(=O)CCl)cc1 [Example 5]
detection in vivo of hydrolyzed products of K601 (RSL3) [1]: detected

SMILES: COC(=O)[C@H]1Cc2c([nH]c3ccccc23)[C@H](c2ccc(C(=O)OC(C)(C)C)cc2)N1C(=O)CCl [Example 1]
AUC Extr ([1]; male, Balb/c nude, in vivo): 7.26%
exposure (Cmax, AUC) compared with K601 (RSL3) ([1]; in vivo): higher exposure
AUC (in vivo): 123 ng·h/mL
AUC(0-inf) (in vivo): 132 ng·h/mL
AUC(0-t) (in vivo): 123 ng·h/mL
Cmax (in vivo): 126 ng/mL
MRT inf (in vivo): 1.4 h
Tmax (in vivo): 0.5 h
half-life (in vivo): 1.12 h
concentration at 0.5 h (in vivo; Calculated Concentration): 146 ng/mL
concentration at 1 h (in vivo; Calculated Concentration): 56.1 ng/mL
concentration at 4 h (in vivo; Calculated Concentration): 5.56 ng/mL
concentration at 0.5 h (in vivo; Calculated Concentration, Mean): 126 ng/mL
concentration at 1 h (in vivo; Calculated Concentration, Mean): 42.6 ng/mL
concentration at 2 h (in vivo; Calculated Concentration, Mean): 14.9 ng/mL
concentration at 4 h (in vivo; Calculated Concentration, Mean): 5.74 ng/mL
IC50 (MCF-10A): 0.85 µM
IC50 (143B): 0.009 µM
IC50 (MiaPaCa-2): 0.005 µM
IC50 (SJSA-1): 0.018 µM

SMILES: CC[C@H]1Cc2c([nH]c3ccccc23)[C@H](c2ccc(C(=O)OC)cc2)N1C(=O)CCl [Example 98]
IC50 (HT-1080 luc2): 0.009 µM
IC50 (SK-OV-3): 0.03 µM
IC50 (MCF-10A): 0.92 µM
IC50 (MDA-MB-435S): 0.007 µM
IC50 (HT29): 0.094 µM
IC50 (H1299): 0.006 µM
IC50 (PANC1): 0.043 µM
IC50 (REC-1): 0.061 µM
IC50 (MV-4-1): 0.065 µM
IC50 (HCC1954): 0.063 µM
IC50 (Huh7): 0.027 µM
IC50 (H2228): 0.017 µM
IC50 (Raji): 0.02 µM

Continued, in another order:

detection in vivo of hydrolyzed products of K601 (RSL3) [1]: detected
SMILES: COC(=O)[C@H]1Cc2c([nH]c3ccccc23)[C@H](c2ccc(C(=O)O)cc2)N1C(=O)CCl [Example 4]

IC50 (HT-1080 luc2): 0.028 µM
IC50 (SK-OV-3): 0.113 µM
IC50 (MDA-MB-435S): 0.038 µM
IC50 (HT29): 0.448 µM
IC50 (H1299): 0.021 µM
IC50 (PANC1): 0.161 µM
IC50 (REC-1): 0.186 µM
IC50 (MV-4-1): 0.23 µM
IC50 (HCC1954): 0.137 µM
IC50 (Huh7): 0.084 µM
IC50 (H2228): 0.034 µM
IC50 (Raji): 0.074 µM
SMILES: C[C@H]1Cc2c([nH]c3ccccc23)[C@H](c2ccc(N3CCOCC3)cc2)N1C(=O)CCl [Example 103]
IC50 (MCF-10A): 1.37 µM

IC50 (HT-1080 luc2): 0.012 µM
IC50 (SK-OV-3): 0.047 µM
IC50 (MDA-MB-435S): 0.017 µM
IC50 (HT29): 0.228 µM
IC50 (SW480): 0.533 µM
IC50 (H1299): 0.013 µM
IC50 (PANC1): 0.078 µM
IC50 (REC-1): 0.07 µM
IC50 (MV-4-1): 0.129 µM
IC50 (HCC1954): 0.096 µM
IC50 (Huh7): 0.073 µM
IC50 (H2228): 0.05 µM
IC50 (Raji): 0.028 µM
SMILES: COC(=O)c1ccc([C@@H]2c3[nH]c4ccc(F)cc4c3C[C@H](C(=O)OC)N2C(=O)CCl)cc1 [Example 92]
IC50 (MCF-10A): 1.14 µM

IC50 (HT-1080 luc2): 0.019 µM
IC50 (SK-OV-3): 0.063 µM
IC50 (MDA-MB-435S): 0.017 µM
IC50 (HT29): 0.174 µM
IC50 (H1299): 0.032 µM
IC50 (PANC1): 0.069 µM
IC50 (REC-1): 0.106 µM
IC50 (MV-4-1): 0.168 µM
IC50 (HCC1954): 0.108 µM
IC50 (Huh7): 0.043 µM
IC50 (H2228): 0.057 µM
IC50 (Raji): 0.038 µM
SMILES: C[C@H]1Cc2c([nH]c3ccccc23)[C@H](c2ccc(C3CCCC3)cc2)N1C(=O)CCl [Example 109]
IC50 (MCF-10A): 1.14 µM

IC50 (HT-1080 luc2): 0.004 µM
IC50 (SK-OV-3): 0.013 µM
IC50 (MDA-MB-435S): 0.004 µM
IC50 (HT29): 0.048 µM
IC50 (H1299): 0.003 µM
IC50 (PANC1): 0.03 µM
IC50 (REC-1): 0.031 µM
IC50 (MV-4-1): 0.023 µM
IC50 (HCC1954): 0.038 µM
IC50 (Huh7): 0.011 µM
IC50 (H2228): 0.009 µM
IC50 (Raji): 0.01 µM
SMILES: C[C@H]1Cc2c([nH]c3ccccc23)[C@H](c2ccc(C(=O)N[C@]34CC5C[C@H](C[C@H](C5)C3)C4)cc2)N1C(=O)CCl [Example 102]
IC50 (MCF-10A): 0.22 µM
